Assay results reported in US9006487B2, “Amine-containing lipids and uses thereof” (Massachusetts Institute of Technology, priority 2005, dated 2015).

Test system: cos-7 cells
Test: DNA transfection: luciferase expression relative to Lipofectamine 2000
Format: cell-based
Settings: luciferase assay after 48 hours; for Luciferase expression as a percentage of that achieved using Lipofectamine 2000: 300 ng Luciferase DNA per well; for % of the luciferase activity obtained from the use of Lipofectamine 2000: 300 ng DNA per well
Procedure, shortened: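 cos-7 cells were transfected with 300 ng/well luciferase DNA complexed with lipid at ratios from 2.5 to 25 w/w. Bright-Glo luminescence was read after 48 hours and converted to ng luciferase by standard curve. Data are percent of the Lipofectamine 2000 control (2.5 w/w).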

SMILES | Luciferase expression as a percentage of that achieved using Lipofectamine 2000 (lipid/DNA 2.5 w/w) [%] | Luciferase expression as a percentage of that achieved using Lipofectamine 2000 (lipid/DNA 5 w/w) [%] | Luciferase expression as a percentage of that achieved using Lipofectamine 2000 (lipid/DNA 10 w/w) [%] | Luciferase expression as a percentage of that achieved using Lipofectamine 2000 (lipid/DNA 15 w/w) [%] | Luciferase expression as a percentage of that achieved using Lipofectamine 2000 (lipid/DNA 20 w/w) [%] | Luciferase expression as a percentage of that achieved using Lipofectamine 2000 (lipid/DNA 25 w/w) [%] | % of the luciferase activity obtained from the use of Lipofectamine 2000 (2.5 w/w lipid to DNA) [%] | % of the luciferase activity obtained from the use of Lipofectamine 2000 (5 w/w lipid to DNA) [%] | % of the luciferase activity obtained from the use of Lipofectamine 2000 (10 w/w lipid to DNA) [%] | % of the luciferase activity obtained from the use of Lipofectamine 2000 (15 w/w lipid to DNA) [%] | % of the luciferase activity obtained from the use of Lipofectamine 2000 (20 w/w lipid to DNA) [%] | % of the luciferase activity obtained from the use of Lipofectamine 2000 (25 w/w lipid to DNA) [%]
CCCCCCCCCCCCCOC(=O)CCN(CC)CCCN(CC)CCC(=O)OCCCCCCCCCCCCC [LE64] | 0.1 | 0.1 | 0.1 | 0.0 | 0.1 | 0.1 | – | – | – | – | – | –
CCCCCCCCCCCCCOC(=O)CCN(CCC(=O)OCCCCCCCCCCCCC)CCN(CCO)CCO [LE86] | – | – | – | – | – | – | 31.1 | 22.7 | 22.6 | 2.5 | 0.0 | 0.0
CCCCCCCCCCCCCOC(=O)CCN(CCC(=O)OCCCCCCCCCCCCC)CCN1CCOCC1 [LE90] | 0.5 | 0.3 | 0.4 | 0.4 | 0.4 | 0.4 | – | – | – | – | – | –
CCCCCCCCCCCCCCOC(=O)CCN(CCCOC)CCC(=O)OCCCCCCCCCCCCCC [LF1] | 0.1 | 0.1 | 0.0 | 0.0 | 0.1 | 0.1 | – | – | – | – | – | –
CCCCCCCCCCCCCCOC(=O)CCN(CCC(=O)OCCCCCCCCCCCCCC)CC1COC(C)(C)O1 (stereo not drawn) [LF7] | 0.1 | 0.1 | 0.0 | 0.0 | 0.1 | 0.1 | – | – | – | – | – | –
CCCCCCCCCCCCCCOC(=O)CCN(CCOC)CCC(=O)OCCCCCCCCCCCCCC [LF10] | 0.1 | 0.1 | 0.0 | 0.0 | 0.1 | 0.1 | – | – | – | – | – | –
CCCCCCCCCCCCCCOC(=O)CCN(CCOCC)CCC(=O)OCCCCCCCCCCCCCC [LF11] | 0.1 | 0.1 | 0.0 | 0.0 | 0.1 | 0.1 | – | – | – | – | – | –
CCCCCCCCCCCCCCOC(=O)CCN(CCC(=O)OCCCCCCCCCCCCCC)CC(OC)OC [LF13] | 0.1 | 0.1 | 0.0 | 0.0 | 0.1 | 0.1 | – | – | – | – | – | –
CCCCCCCCCCCCCCOC(=O)CCN(CCC(=O)OCCCCCCCCCCCCCC)CC1CCCO1 (stereo not drawn) [LF15] | 0.1 | 0.1 | 0.0 | 0.0 | 0.1 | 0.1 | – | – | – | – | – | –
CCCCCCCCCCCCCCOC(=O)CCN(CCC(=O)OCCCCCCCCCCCCCC)CCc1ccc(OC)c(OC)c1 [LF17] | 0.1 | 0.1 | 0.1 | 0.1 | 0.1 | 0.1 | – | – | – | – | – | –
CCCCCCCCCCCCCCOC(=O)CCN(CCCO)CCC(=O)OCCCCCCCCCCCCCC [LF20] | 0.2 | 0.4 | 0.3 | 0.2 | 0.1 | 0.1 | – | – | – | – | – | –
CCCCCCCCCCCCCCOC(=O)CCN(CCC(=O)OCCCCCCCCCCCCCC)C[C@@H](C)O [LF21] | 0.4 | 0.4 | 0.4 | 0.4 | 0.4 | 0.4 | – | – | – | – | – | –
CCCCCCCCCCCCCCOC(=O)CCN(CCC(=O)OCCCCCCCCCCCCCC)C[C@H](C)O [LF22] | 0.1 | 0.1 | 0.1 | 0.1 | 0.1 | 0.1 | – | – | – | – | – | –
CCCCCCCCCCCCCCOC(=O)CCN(CCC(=O)OCCCCCCCCCCCCCC)CC(O)CO (stereo not drawn) [LF24] | 0.1 | 0.1 | 0.1 | 0.2 | 0.3 | 0.3 | – | – | – | – | – | –
CCCCCCCCCCCCCCOC(=O)CCN(CCC(=O)OCCCCCCCCCCCCCC)C(CO)CO [LF25] | 0.1 | 0.2 | 0.3 | 0.4 | 0.9 | 1.5 | – | – | – | – | – | –
CCCCCCCCCCCCCCOC(=O)CCN(CCC(=O)OCCCCCCCCCCCCCC)C(C)(CO)CO [LF26] | 0.1 | 0.2 | 0.7 | 0.1 | 0.1 | 0.3 | – | – | – | – | – | –
CCCCCCCCCCCCCCOC(=O)CCN(CCCCO)CCC(=O)OCCCCCCCCCCCCCC [LF28] | 0.1 | 0.1 | 0.1 | 0.2 | 0.3 | 0.4 | – | – | – | – | – | –
CCCCCCCCCCCCCCOC(=O)CCN(CCCCCO)CCC(=O)OCCCCCCCCCCCCCC [LF32] | 0.1 | 0.1 | 0.2 | 0.1 | 0.4 | 0.4 | – | – | – | – | – | –
CCCCCCCCCCCCCCOC(=O)CCN(CCC(=O)OCCCCCCCCCCCCCC)CC(C)(C)CO [LF33] | 0.1 | 0.1 | 0.1 | 0.1 | 0.1 | 0.1 | – | – | – | – | – | –
CCCCCCCCCCCCCCOC(=O)CCN(CCC(=O)OCCCCCCCCCCCCCC)C(CC)(CO)CO [LF34] | 0.1 | 0.3 | 1.1 | 0.5 | 0.2 | 0.3 | – | – | – | – | – | –
